In patent US20230293530A1, “AGENTS FOR SENSITIZING SOLID TUMORS TO TREATMENT” (Yeda Research and Development Co. Ltd., priority 2020, published 2023):

What was measured:
4T1 breast cancer cells [1] = test: Nucleotide levels by LC-MS in 4T1 cells with or without mizoribine (or L-Name); assay type: cell-based, murine; conditions: 300 µM mizoribine, 24 h
Procedure: B) The purine/pyrimidine ratio is increased upon glucose deprivation in murine breast cancer cells. 4T1 cells were grown in the absence of glucose for 24h (baseline) and 48h and quantified by liquid chromatography-mass spectrometry (LC-MS). Nucleotide levels were measured in µg/ml and corrected for protein concentration. Purine/pyrimidine ratio was calculated by dividing (AMP+GMP) by (UMP+CMP) relative concentrations. C) ASS1 inhibition decreases the purine/pyrimidine ration under glucose deprivation. 4T1 cells were grown in the presence or absence of glucose for 48 h and analysed as in 1B. […] Cells were grown and treated as in 5B. […] 4T1 cells were grown either with or without 300 µM mizoribine for 24 h. Nucleotide levels were measured by LC-MS. […] Each experiment was conducted with biological and technical replicates and repeated at least three times. G) A549 cells were grown for 48 hr in control medium or supplemented with 1.2 µM Methotrexate (Holland-Moran). Nucleotide levels were measured as described below by LC-MS. Purine/pyrimidine ratio was calculated by dividing (AMP+GMP+ATP+GTP) concentration by (UMP+CMP+TMP+UTP+CTP+TTP) concentration before and after methotrexate. All error bars represent SER. *P<0.05, **P<0.01. Each experiment was conducted with biological and technical replicates and repeated at least three times.
(§1) A) Purine/pyrimidine ratio is increased upon nutrient deprivation in […] colon cancer cells. MC38 cells were grown in either regular medium or in medium without glucose for 24 h. Nucleotide levels were measured by LC-MS. Purine/pyrimidine ratio was calculated by dividing (AMP+GMP) AUC by (UMP+CMP) AUC. B) 4T1 cells with and without shASS1 were grown in glucose free medium either supplemented or not with 10 mM L-Name for 48 hrs. Nucleotide levels were measured by LC-MS. Purine/pyrimidine ratio was calculated by dividing the sum levels of (AMP+GMP) by the sum levels of (UMP+CMP+TMP). […] MC38 cells were grown either with or without 300 µM mizoribine for 24 h. Nucleotide levels were measured by LC-MS. […] 4T1 (left panel) and MC38 cells (right panel) were grown for 24 h with or without 300 µM mizoribine. Cell viability was measured by crystal violet staining. Each experiment was conducted with biological and technical replicates and repeated at least three times. All error bars represent SER. * P<0.05, ** denotes P<0.01, ***P<0.001.
LC-MS analysis: The LC-MS/MS instrument consisting of an Acquity I-class UPLC system (Waters) and Xevo TQ-S triple quadrupole mass spectrometer (Waters), equipped with an electrospray ion source, and operated in positive ion mode was used for analysis of nucleoside monophosphates. MassLynx and TargetLynx software (version 4.1, Waters) were applied for the acquisition and analysis of data. Chromatographic separation was done on a 100 mm × 2.1 mm internal diameter, 1.8-µm UPLC HSS T3 column equipped with 50 mm × 2.1 mm internal diameter, 1.8-µm UPLC HSS T3 pre-column (both Waters Acquity) with mobile phases A (10 mM ammonium acetate and 5 mM ammonium hydrocarbonate buffer, pH 7.65 adjusted with 10% acetic acid) and B (acetonitrile) at a flow rate of 0.3 mL min-1 and column temperature 25° C. A gradient was used as follows: for 0-3 min the column was held at 0.2% B, then 3-3.5 min a linear increase to 100% B, 3.5-4.0 min held at 100% B, 4.0-4.5 min back to 0.2% B and equilibration at 0.2% B for 2.5 min. […] Nucleotide concentration was calculated using a standard curve of the relevant nucleotide concentration in each sample. […]

4T1 cells = test: Cell viability by crystal violet staining, 4T1; assay type: cell-based, murine; conditions: 300 µM mizoribine, 24 h
Procedure: as §1

MC38 cells = test: Cell viability by crystal violet staining, MC38; assay type: cell-based, mouse; conditions: 300 µM mizoribine, 24 h
Procedure: as §1

4T1 breast cancer cells [2] = test: Syngeneic mouse breast cancer model, 4T1 cells pre-treated in vitro with mizoribine; assay type: in vivo, BALB/c female mice
Excerpt: C) ASS1 mRNA expression levels and NDNO scores are associated with non-response to anti-PD1 therapy in non-small cell lung cancer (NSCLC) (7 responders and 14 nonresponders). D) Proteomic-based NDNO scores associate with lower hydrophobicity of peptide repertoire (Wilcoxon ranksum P<0.05) in a (CPTAC3) lung adenocarcinoma cohort. NDNO scores were used to determine the top tertile (red; n=36) and bottom tertile (blue; n=36); Proteomic NDNO scores denote the ratio of NNDO scores of the tumor vs the matched normal sample (Methods). Hydrophobicity scores were determined by R library Peptides using the metric from Janin et al^2, where the hydrophobicity of each sample’s peptide repertoire denotes the mean hydrophobicity of all its peptides (Methods). E) 4T1 breast cancer cells were treated with 300 µM mizoribine for 24 hours and analysed by western for LMP-7 immunoproteasome (Left panel). Quantification of the western is shown on the right panel. […] Tumor size was calliper-measured on the designated days (upper panel) and at sacrifice on day 14 (lower panel, p = 0.0476 using student’s t-test). […] Human IFNγ was measured using ELISA in wells containing cultured CD8+T-cells and PDX explants from two patients (Pat#1, LEP 19 and Pat#2, LEP 20) with metastatic NSCLC on responsive to anti-PD1. […]

[3] = corrected for protein concentration

**Q.** NC(=O)c1ncn([C@@H]2O[C@H](CO)[C@@H](O)[C@H]2O)c1O [Mizoribine, mizoribine] was tested. Which “purine/pyrimidine ratio (AMP+GMP)/(UMP+CMP)” value (4T1 breast cancer cells [1]) did it give?
**A.** decreased purine/pyrimidine ratio

**Q.** What about the “AMP level, Mizoribine treatment” value (4T1 breast cancer cells [1]; [3]) of the same compound?
**A.** 483.2 µg/ml/ pt

**Q.** And the “CMP level, Mizoribine treatment” value (4T1 breast cancer cells [1]; [3])?
**A.** 7.3 µg/ml/ pt

**Q.** What about the “GMP level, Mizoribine treatment” value (4T1 breast cancer cells [1]; [3]) of the same compound?
**A.** 28.46 µg/ml/ pt

**Q.** And the “UMP level, Mizoribine treatment” value (4T1 breast cancer cells [1]; [3])?
**A.** 38.39 µg/ml/ pt

**Q.** What about the “cancer cell proliferation (cell viability, crystal violet)” value (4T1 cells) of the same compound?
**A.** restricts ASS1-overexpressing cancer cell proliferation

**Q.** What about the “cancer cell proliferation (cell viability, crystal violet)” value (MC38 cells) of the same compound?
**A.** restricts ASS1-overexpressing cancer cell proliferation

**Q.** What about the tumor growth (4T1 breast cancer cells [2]; 4T1 cells treated with mizoribine in vitro before injection into mammary pads, mizoribine alone) of the same compound?
**A.** restricted tumor growth

**Q.** What about the “tumor growth response in combination with anti-PD1” value (4T1 breast cancer cells [2]; 4T1 cells treated with mizoribine in vitro before injection, anti-PD1 intraperitoneal, mice unresponsive to anti-PD1) of the same compound?
**A.** more significant response
